From US7989203B2, “Methods for use of apoptotic cells to deliver antigen to dendritic cells for induction or tolerization of T cells” (The Rockefeller University, priority 1998, dated 2011)
Entries after “also recorded” stand apart in the source; their conditions may differ. Read-outs that look alike come from different tables or passages of the source. *: point of attachment. Cbz = O=C(OCc1ccccc1)*

Columns and labels:
DCs [1] = assay type: cell-based, human
immature DCs = assay type: cell-based, human; conditions: for Percent Inhibition of phagocytosis of apoptotic cells: immature DC/apoptotic cell coculture, averages of 2-4 experiments
protein kinase C = conditions: footnote to Table II; cited from earlier work
DCs [2] = assay: Y-Ae epitope (I-Ab/I-E peptide complex) formation on DCs cultured with B blasts (FACS); assay type: cell-based, mouse; conditions: DCs cultured 20 h with B blasts
Experimental: [FIG. 11B]: Y-Ae epitope formation is blocked by NH4Cl. DCs were cultured 20 h with B blasts with or without NH4Cl at 5-20 mM. The cultures were stained for Y-Ae and CD86.
Antibodies. The Y-Ae hybridoma was generously provided by Dr. C. Janeway, Yale University, New Haven Conn. and grown serum-free. The IgG2b antibody was purified on protein A sepharose, biotinylated, and used in the FACS along with PE-streptavidin to detect MHC class II-peptide complexes (75,76) with a mouse IgG2b anti-human TCR antibody as the non-reactive control [PharMingen, San Diego Calif.]. The cells were double labeled for FACS and for microscopy with FITC antibodies to CD8, CD11c, CD86, I-Ab [AF6-120.1], 1-Ad, and I-E [14-4-4S][PharMingen].
Capture of cell-derived peptides in vitro. Bone marrow DCs were generated in 24 well plates for 6 days in GM-CSF, gently washed to remove mature floating DCs, and then fed B blasts, human cells, or a peptide [residues 56-73 of 1-Eα]. Before adding I-E^+ cells or peptide, the DCs were immature, since much of the MHC class II was in intracellular lysosomal compartments and CD86 was not expressed at the surface (84) After uptake of I-E, the DCs matured with high levels of surface MHC II and CD86.

[3] = tested on: influenza-infected monocytes; assay type: cell-based, human; conditions: determined by TUNEL; without affecting expression of viral proteins
[4] = tested on: influenza-infected monocytes; assay type: cell-based, human; conditions: concentrations which inhibited apoptosis of the infected monocytes; 7 days
phospholipase D = conditions: footnote to Table II; cited from earlier work

Molecule: C[C@H]1CCC/C=C/[C@@H]2C[C@H](O)C[C@H]2[C@H](O)/C=C/C(=O)O1 [BFA, Brefeldin A]
- DCs ability to present antigenic material on MHC class I (DCs [1]; DCs preincubated with 6 ug/ml): completely inhibited

Molecule: COc1ccc2c(c[n+](C)c3c4cc5c(cc4ccc23)OCO5)c1OC.[Cl-] [CC, Chelethrine chloride]
- Percent Inhibition of phagocytosis of apoptotic cells (immature DCs; 12 μM): 4%
- IC50 (protein kinase C): 0.66 µM

Molecule: C=C1[C@@H](C)[C@H]2[C@H](Cc3ccccc3)NC(=O)[C@]23[C@H](OC(C)=O)/C=C/[C@@](C)(O)C(=O)[C@@H](C)C/C=C/[C@H]3[C@@H]1O [Cytochalasin D]
- inhibition of phagocytosis of apoptotic cells by immature DCs (in words) (immature DCs; concentration not given): blocked uptake

Molecule: O=C(O)CN(CCN(CC(=O)O)CC(=O)O)CC(=O)O [EDTA]
- inhibition of phagocytosis of apoptotic cells by immature DCs (in words) (immature DCs): inhibitory

Molecule: O=C(O)c1cc(N(Cc2ccccc2O)Cc2cc(O)ccc2O)ccc1O [LA, Lavendustin A]
- Percent Inhibition of phagocytosis of apoptotic cells (immature DCs; 10 μM): 14%
- Percent Inhibition of phagocytosis of apoptotic cells (immature DCs; 40 μM): 41.5%

Molecule: O=C(O)c1cc(N(Cc2ccccc2O)Cc2ccccc2O)ccc1O [LB, Lavendustin B]
- Percent Inhibition of phagocytosis of apoptotic cells (immature DCs; 10 μM): 0%
- Percent Inhibition of phagocytosis of apoptotic cells (immature DCs; 40 μM): 0%

Molecule: CC(=O)N[C@@H](CSC(=O)[C@]1([C@@H](O)C(C)C)NC(=O)[C@H](C)[C@@H]1O)C(=O)O [Lactacystin]
- antigen presentation by the uninfected DCs (DCs [1]; unpublished data, concentration not given): only partially blocked

Molecule: Cl.N [NH4Cl, ammonium chloride]
- Y-Ae development (epitope formation) (DCs [2]; 5 mM): partially
- Y-Ae development (epitope formation) (DCs [2]; 20 mM): totally blocked; also recorded: completely blocked
- DCs ability to present antigenic material on MHC class I (DCs [1]): completely inhibited

Molecule: Cbz-Val-Ala-Asp-aldehyde
- apoptosis of influenza-infected monocytes [3]: block apoptosis
- generation of virus-specific CTLs after transfer of medium from treated infected monocytes to T cells and uninfected DCs [4]: virus-specific CTLs were not generated

Molecule: Herbamycin A
- Percent Inhibition of phagocytosis of apoptotic cells (immature DCs; 1.8 μM): 6.5%
- Percent Inhibition of phagocytosis of apoptotic cells (immature DCs; 9 μM): 49%
- Percent Inhibition of phagocytosis of apoptotic cells (immature DCs; 18 μM): 66.5%
- IC50, PDGF-induced phospholipase D activation (phospholipase D): ^§Herbamycin A is a potent cell-permeable protein tyrosine kinase inhibitor and inhibits PDGF-induced phospholipase D activation (IC50 = 8 μg/ml) in a dose dependant manner.

Molecule: TSP: purified TSP (thrombospondin)
- inhibition of phagocytosis of apoptotic cells by immature DCs (in words) (immature DCs; concentration not given): nor the addition of purified TSP to DC/apoptotic cell co-cultures has an inhibitory effect
